This is an account of results in US12479848B2, “Substituted fused heteroaromatic bicyclic compounds as kinase inhibitors and the use thereof” (IMPACT THERAPEUTICS (SHANGHAI), INC, priority 2019, dated 2025).

Test [1] relates to human lung cancer cell NCI-H460. The test is described as follows: MTT proliferation assay, NCI-H460. The class given is cell-based. To be noted: Homo sapiens, NCI-H460, 96 h, 4 days, read-out: IC50 (nM), inhibition of proliferation of NCI-H460. As for the experimental part:
(§1) The cells were seeded into 96-well cell culture plate with a density of 2000/4000 cells per well and incubated overnight in a 5% CO2 incubator at 37° C. […] 5 L diluent of each concentration was added to 120 μL of medium (25 times diluted) and mixed by shaking. The overnight cell plates were taken and the culture medium was removed, 195 μL of fresh medium was added to each well, and 5 μL of diluted medium containing the corresponding concentration of the test compound was added respectively (the final concentration of DMSO is 1%), and the culture plate was then placed in a 5% CO2 incubator at 37° C. for 4 days. After removing the original solution, 100 μL of fresh serum-free DMEM medium containing MTT (0.5 mg/mL) was added to each well, the culture was continued. […] Cell viability (%)=(ODcompound−ODbackground)/(ODDMSO−ODbackground)×100. GraphPad Prism 6.0 was used to analyze the data. The inhibitory activity of compounds on cell proliferation was plotted based on cell viability and the logarithm of compound concentration.
(Tetrazolium dyes change colour on reduction, which living cells bring about.)

Test [2] deals with human colon cancer cell LoVo. The test is described as follows: MTT proliferation assay, LoVo. The class given is cell-based. To be noted: Homo sapiens, LoVo, 96 h, 4 days, read-out: IC50 (nM), inhibition of proliferation of LoVo. How it is done: as §1, with “5 μL” for “5 L”, “viability (%)=(ODcompound−ODbackground)/(ODDMSO-ODbackground)×100.” for “viability (%)=(ODcompound−ODbackground)/(ODDMSO−ODbackground)×100.”

The target in test [3] is T1, ATR/ATRIP enzyme (Homo sapiens, UniProt Q13535).
T1 construct: purchased Eurofins 14-953
T1 sequence (Q13535 whole entry): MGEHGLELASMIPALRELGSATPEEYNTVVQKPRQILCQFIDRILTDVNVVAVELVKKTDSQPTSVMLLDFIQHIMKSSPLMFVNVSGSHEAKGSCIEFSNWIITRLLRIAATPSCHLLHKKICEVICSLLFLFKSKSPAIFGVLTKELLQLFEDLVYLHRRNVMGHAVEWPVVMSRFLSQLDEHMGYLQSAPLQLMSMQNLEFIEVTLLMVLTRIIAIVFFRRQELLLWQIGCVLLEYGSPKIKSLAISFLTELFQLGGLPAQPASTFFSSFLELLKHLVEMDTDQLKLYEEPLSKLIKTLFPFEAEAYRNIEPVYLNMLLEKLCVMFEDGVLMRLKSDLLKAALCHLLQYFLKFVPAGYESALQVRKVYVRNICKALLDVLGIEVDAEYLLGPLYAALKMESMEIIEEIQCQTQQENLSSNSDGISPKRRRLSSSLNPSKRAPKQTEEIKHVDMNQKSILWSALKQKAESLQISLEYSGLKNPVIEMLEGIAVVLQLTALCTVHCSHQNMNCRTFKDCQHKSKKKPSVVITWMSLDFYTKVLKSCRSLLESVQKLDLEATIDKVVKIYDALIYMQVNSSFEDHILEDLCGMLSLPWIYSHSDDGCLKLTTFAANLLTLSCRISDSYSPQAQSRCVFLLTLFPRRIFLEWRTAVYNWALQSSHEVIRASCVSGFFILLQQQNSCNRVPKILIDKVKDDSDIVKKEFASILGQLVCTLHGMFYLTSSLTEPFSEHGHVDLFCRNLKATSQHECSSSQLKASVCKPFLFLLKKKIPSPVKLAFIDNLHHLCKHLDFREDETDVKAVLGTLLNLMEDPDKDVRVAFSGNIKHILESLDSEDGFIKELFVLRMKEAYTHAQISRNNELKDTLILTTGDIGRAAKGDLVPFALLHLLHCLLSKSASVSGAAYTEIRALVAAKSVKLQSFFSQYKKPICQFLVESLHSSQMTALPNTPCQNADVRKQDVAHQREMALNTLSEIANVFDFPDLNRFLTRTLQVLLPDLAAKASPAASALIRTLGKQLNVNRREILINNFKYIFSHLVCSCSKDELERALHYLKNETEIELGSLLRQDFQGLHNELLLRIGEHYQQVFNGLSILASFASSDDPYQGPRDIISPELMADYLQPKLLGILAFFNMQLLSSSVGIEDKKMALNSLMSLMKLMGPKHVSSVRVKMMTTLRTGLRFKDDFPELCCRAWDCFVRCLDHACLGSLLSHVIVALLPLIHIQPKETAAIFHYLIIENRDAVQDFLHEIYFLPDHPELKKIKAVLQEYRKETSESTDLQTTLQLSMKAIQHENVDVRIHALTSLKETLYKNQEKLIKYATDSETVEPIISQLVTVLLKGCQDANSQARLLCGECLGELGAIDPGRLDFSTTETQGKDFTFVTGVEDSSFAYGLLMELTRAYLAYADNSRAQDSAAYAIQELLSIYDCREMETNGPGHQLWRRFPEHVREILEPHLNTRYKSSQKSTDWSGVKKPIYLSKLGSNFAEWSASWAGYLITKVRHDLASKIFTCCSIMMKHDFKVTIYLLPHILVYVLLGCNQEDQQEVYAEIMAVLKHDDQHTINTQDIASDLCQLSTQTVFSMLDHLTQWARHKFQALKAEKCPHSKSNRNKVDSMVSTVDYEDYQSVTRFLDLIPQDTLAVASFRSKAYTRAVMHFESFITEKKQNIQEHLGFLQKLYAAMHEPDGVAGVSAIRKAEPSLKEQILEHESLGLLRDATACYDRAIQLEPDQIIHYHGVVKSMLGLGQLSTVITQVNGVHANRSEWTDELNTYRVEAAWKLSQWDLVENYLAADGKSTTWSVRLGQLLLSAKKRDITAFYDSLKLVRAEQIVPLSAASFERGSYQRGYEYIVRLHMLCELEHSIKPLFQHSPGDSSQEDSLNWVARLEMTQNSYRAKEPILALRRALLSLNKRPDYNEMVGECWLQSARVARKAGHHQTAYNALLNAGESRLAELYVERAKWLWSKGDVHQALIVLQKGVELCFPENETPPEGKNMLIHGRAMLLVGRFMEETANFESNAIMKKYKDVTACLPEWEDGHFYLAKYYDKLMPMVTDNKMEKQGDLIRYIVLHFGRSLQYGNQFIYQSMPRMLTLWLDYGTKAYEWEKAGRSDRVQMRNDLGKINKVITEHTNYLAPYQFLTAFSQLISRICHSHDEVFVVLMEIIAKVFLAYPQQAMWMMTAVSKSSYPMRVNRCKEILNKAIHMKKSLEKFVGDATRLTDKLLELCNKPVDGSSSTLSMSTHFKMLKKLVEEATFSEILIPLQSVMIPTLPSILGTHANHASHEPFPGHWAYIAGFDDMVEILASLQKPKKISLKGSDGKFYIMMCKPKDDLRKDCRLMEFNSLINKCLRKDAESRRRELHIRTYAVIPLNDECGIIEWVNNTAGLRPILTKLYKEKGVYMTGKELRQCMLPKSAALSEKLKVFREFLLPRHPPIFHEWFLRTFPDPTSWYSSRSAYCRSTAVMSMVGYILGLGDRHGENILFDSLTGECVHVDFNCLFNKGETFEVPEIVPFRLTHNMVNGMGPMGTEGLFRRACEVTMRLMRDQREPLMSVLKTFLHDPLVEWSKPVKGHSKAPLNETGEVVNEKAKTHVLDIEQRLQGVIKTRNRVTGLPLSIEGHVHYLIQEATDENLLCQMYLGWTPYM
T1 sequence (Q8WXE1 whole entry partner): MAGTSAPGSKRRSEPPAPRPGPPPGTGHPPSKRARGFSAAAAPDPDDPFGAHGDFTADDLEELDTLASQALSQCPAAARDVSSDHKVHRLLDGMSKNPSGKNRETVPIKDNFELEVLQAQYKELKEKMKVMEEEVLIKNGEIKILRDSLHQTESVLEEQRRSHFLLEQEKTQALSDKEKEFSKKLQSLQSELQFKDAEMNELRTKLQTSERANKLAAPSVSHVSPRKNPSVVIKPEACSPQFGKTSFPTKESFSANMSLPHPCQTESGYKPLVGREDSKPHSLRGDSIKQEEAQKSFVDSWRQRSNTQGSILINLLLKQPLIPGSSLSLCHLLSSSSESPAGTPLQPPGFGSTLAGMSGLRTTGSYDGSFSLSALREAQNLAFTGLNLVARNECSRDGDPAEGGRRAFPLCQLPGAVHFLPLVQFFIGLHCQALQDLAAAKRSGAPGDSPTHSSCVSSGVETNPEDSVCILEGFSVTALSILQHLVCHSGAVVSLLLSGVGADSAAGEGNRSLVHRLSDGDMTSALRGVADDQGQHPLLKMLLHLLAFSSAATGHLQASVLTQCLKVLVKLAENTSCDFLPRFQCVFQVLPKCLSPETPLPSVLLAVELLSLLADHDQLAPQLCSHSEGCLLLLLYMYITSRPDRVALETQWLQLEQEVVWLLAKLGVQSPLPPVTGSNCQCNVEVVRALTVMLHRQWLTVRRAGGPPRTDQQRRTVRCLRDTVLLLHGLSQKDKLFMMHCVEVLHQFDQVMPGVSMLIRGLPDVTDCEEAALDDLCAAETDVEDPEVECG
The test is described as follows: ATR enzyme activity experiment (HTRF). The format is biochemical. To be noted: for IC50: HTRF, p53 substrate, 30 minutes at room temperature; for inhibition at 0.05 µM: read-out: Inh %, inhibitory effects on ATR kinase activity at 50 nM. How it is done:
The test compound was diluted to a 4× final concentration with reaction buffer (25 mM HEPES (pH8.0), 10 mM MnCl2, 1% glycerol, 0.01% Brij-35, 5 mM DTT and 0.1% BSA). […] The mixture was centrifuged at 1000 rpm for 1 minute, and reacted at room temperature protected from light for 30 minutes. Then 5 μL of EDTA stop solution (250 mM) was added to stop the reaction. […] Data were analyzed using GraphPad Prism6.0, and fitted using the curve equation: Y=Bottom+(Top−Bottom)/(1+10^((Log IC50−X)*HillSlope)) and IC50 values were calculated.
(In general: Time-resolved FRET reads energy transfer from a long-lived donor to a nearby acceptor.)

As to `Cc1ccccc1-c1cc(N2CCOC[C@H]2C)nn2c(-c3ccn[nH]3)ncc12` [Example 40, (R)-4-(7-(1H-pyrazol-5-yl)-4-(o-tolyl)imidazo[1,5-b]pyridazin-2-yl)-3-methylmorpholine], the IC50 in test [1] was determined as 17.4 nM; in test [2], 21.8 nM; in test [3], 2 nM.

Consider `C[C@@H]1COCCN1c1cc(-c2ccncc2F)c2cnc(-c3ccn[nH]3)n2n1` [Example 43, (R)-4-(4-(3-fluoropyridin-4-yl)-7-(1H-pyrazol-5-yl)imidazo[1,5-b]pyridazin-2-yl)-3-methylmorpholine], for which the IC50 in test [1] came out at 18.2 nM; in test [2], 23.1 nM; in test [3], 12 nM.

Regarding `C[C@@H]1COCCN1c1cc(-c2cccc(C#N)c2)c2cnc(-c3ccn[nH]3)n2n1` [Example 52, (R)-3-(2-(3-methylmorpholino)-7-(1H-pyrazol-5-yl)imidazo[1,5-b]pyridazin-4-yl)benzonitrile], the IC50 was 26.3 nM in test [1], 41.9 nM in test [2] and 9 nM in test [3].

As to `Cc1n[nH]cc1-c1cc(N2CCOC[C@H]2C)nn2c(-c3ccn[nH]3)ncc12` [Example 38, (R)-3-methyl-4-(4-(3-methyl-1H-pyrazol-4-yl)-7-(1H-pyrazol-5-yl)imidazo[1,5-b]pyridazin-2-yl)morpholine], the IC50 in test [1] turned out to be 419 nM; in test [2] it was 128 nM. For the same molecule, the inhibition at 0.05 µM in test [3] came to 90%.

With `C[C@@H]1COC[C@@H](C)N1c1cc(-c2ccnn2C)c2cnc(-c3ccn[nH]3)n2n1` [Example 34, (3R,5R)-3,5-dimethyl-4-(4-(1-methyl-1H-pyrazol-5-yl)-7-(1H-pyrazol-5-yl)imidazo[1,5-b]pyridazin-2-yl)morpholine], the IC50 was found to be 1520 nM in test [1] and 953 nM in test [2].

On to `C[C@@H]1COCCN1c1cc(-c2cccnc2C(F)(F)F)c2cnc(-c3ccn[nH]3)n2n1` [Example 47, (R)-4-(7-(1H-pyrazol-5-yl)-4-(2-(trifluoromethyl)pyridin-3-yl)imidazo[1,5-b]pyridazin-2-yl)-3-methylmorpholine], for which the IC50 in test [1] was 18.2 nM; in test [2], 20.7 nM; in test [3], 1 nM.

Regarding `C[C@@H]1COCCN1c1cc(-c2ccn(CCF)n2)c2cnc(-c3ccn[nH]3)n2n1` [Example 61, (R)-4-(4-(1-(2-fluoroethyl)-1H-pyrazol-3-yl)-7-(1H-pyrazol-5-yl)imidazo[1,5-b]pyridazin-2-yl)-3-methylmorpholine], the values for the IC50 in test [1] and in test [2] were 169 nM and 175 nM, respectively.

As to `Cc1cc(S(C)(=O)=O)ccc1-c1cc(N2CCOC[C@H]2C)nn2c(-c3ccn[nH]3)ncc12` [Example 49, (R)-3-methyl-4-(4-(2-methyl-4-(methylsulfonyl)phenyl)-7-(1H-pyrazol-5-yl)imidazo[1,5-b]pyridazin-2-yl)morpholine], the IC50 came to 43 nM in test [1], 32.9 nM in test [2] and 6 nM in test [3].

For the molecule `C[C@@H]1COCCN1c1cc(-c2ccnn2C)c2nnc(-c3ccn[nH]3)n2n1` [Example 15, (R)-3-methyl-4-(8-(1-methyl-1H-pyrazol-5-yl)-3-(1H-pyrazol-5-yl)-[1,2,4]triazolo[4,3-b]pyridazin-6-yl)morpholine], the IC50 in test [1] was 1920 nM; in test [2], 597 nM.

As for `Cc1cnn(C)c1-c1cc(N2CCOC[C@H]2C)nn2c(-c3ccn[nH]3)ncc12` [Example 41, (R)-4-(4-(1,4-dimethyl-1H-pyrazol-5-yl)-7-(1H-pyrazol-5-yl)imidazo[1,5-b]pyridazin-2-yl)-3-methylmorpholine], the IC50 was 48.8 nM in test [1], 49.5 nM in test [2] and 2 nM in test [3].

On to `Cc1ncccc1-c1cc(N2CCOC[C@H]2C)nn2c(-c3ccn[nH]3)ncc12` [Example 42, (R)-3-methyl-4-(4-(2-methylpyridin-3-yl)-7-(1H-pyrazol-5-yl)imidazo[1,5-b]pyridazin-2-yl)morpholine], for which the IC50 was 30.6 nM in test [1], 44.7 nM in test [2] and 2 nM in test [3].

Consider `C[C@@H]1COCCN1c1cc(-c2ccnn2C)c2ncc(-c3ccn[nH]3)n2c1` [Example 1, (R)-3-methyl-4-(8-(1-methyl-1H-pyrazol-5-yl)-3-(1H-pyrazol-5-yl)imidazo[1,2-a]pyridin-6-yl)morpholine], for which, in test [3], the IC50 was greater than 10000 nM.

For `C[C@@H]1COCCN1c1cc(C2CC2)c2cnc(-c3ccn[nH]3)n2n1` [Example 32, (R)-4-(4-cyclopropyl-7-(1H-pyrazol-5-yl)imidazo[1,5-b]pyridazin-2-yl)-3-methylmorpholine], the IC50 in test [1] amounted to 78.6 nM; in test [2], 87.3 nM; in test [3] it was 15 nM.

`C[C@@H]1COCCN1c1cc(-c2ccnn2C)c2cnc(-c3ccc[nH]3)n2n1` [Example 22, (R)-3-methyl-4-(4-(1-methyl-1H-pyrazol-5-yl)-7-(1H-pyrrol-2-yl)imidazo[1,5-b]pyridazin-2-yl)morpholine]: the IC50 worked out at 1150 nM in test [1], 854 nM in test [2] and 2.06 nM in test [3].

As to `C[C@H]1COCCN1c1cc(-c2ccnn2C)c2cnc(-c3ccn[nH]3)n2n1` [Example 33, (S)-3-methyl-4-(4-(1-methyl-1H-pyrazol-5-yl)-7-(1H-pyrazol-5-yl)imidazo[1,5-b]pyridazin-2-yl)morpholine], the IC50 in test [1] worked out at 256 nM; in test [2], 230 nM. In addition, in test [3], the inhibition at 0.05 µM turned out to be 27%.

For the molecule `Cc1nc([S+](C)[O-])ccc1-c1cc(N2CCOC[C@H]2C)nn2c(-c3ccn[nH]3)ncc12` (stereo partly drawn) [Example 50, (3R)-3-methyl-4-(4-(2-methyl-6-(methylsulfinyl)pyridin-3-yl)-7-(1H-pyrazol-5-yl)imidazo[1,5-b]pyridazin-2-yl)morpholine], the IC50 in test [1] amounted to 86.8 nM; in test [2], 59.9 nM; in test [3] it was 16 nM.

Consider `CCn1nccc1-c1cc(N2CCOC[C@H]2C)nn2c(-c3ccn[nH]3)ncc12` [Example 37, (R)-4-(4-(1-ethyl-1H-pyrazol-5-yl)-7-(1H-pyrazol-5-yl)imidazo[1,5-b]pyridazin-2-yl)-3-methylmorpholine], for which the IC50 worked out at 58.8 nM in test [1], 45 nM in test [2] and 7 nM in test [3].

For `Cc1cnccc1-c1cc(N2CCOC[C@H]2C)nn2c(-c3ccn[nH]3)ncc12` [Example 51, (R)-3-methyl-4-(4-(3-methylpyridin-4-yl)-7-(1H-pyrazol-5-yl)imidazo[1,5-b]pyridazin-2-yl)morpholine], the values for the IC50 in test [1] and in test [2] were 76.3 nM and 76.7 nM, respectively.

For the molecule `C[C@@H]1COCCN1c1cc(-c2ccc(S(C)(=O)=O)cc2)c2cnc(-c3ccn[nH]3)n2n1` [Example 35, (R)-3-methyl-4-(4-(4-(methylsulfonyl)phenyl)-7-(1H-pyrazol-5-yl)imidazo[1,5-b]pyridazin-2-yl)morpholine], the figures for the IC50 in test [1] and in test [2] were 171 nM and 75.4 nM, respectively. The inhibition at 0.05 µM in test [3] came to 71%.

Regarding `C[C@@H]1COCCN1c1cc(-c2ccnc3[nH]ccc23)c2cnc(-c3ccn[nH]3)n2n1` [Example 55, (R)-4-(7-(1H-pyrazol-5-yl)-4-(1H-pyrrolo[2,3-b]pyridin-4-yl)imidazo[1,5-b]pyridazin-2-yl)-3-methylmorpholine], the IC50 worked out at 95.3 nM in test [1] and 51 nM in test [2].

As to `Cn1nccc1-c1cc(N2CCOCC2)nn2c(-c3ccn[nH]3)nnc12` [Example 12, 4-(8-(1-methyl-1H-pyrazol-5-yl)-3-(1H-pyrazol-5-yl)-[1,2,4]triazolo[4,3-b]pyridazin-6-yl)morpholine], the IC50 in test [1] is greater than 10000 nM; in test [2], 3230 nM.

Regarding `C[C@@H]1COCCN1c1cc(-c2ccn[nH]2)c2cnc(-c3ccn[nH]3)n2n1` [Example 27, (R)-4-(4,7-di(1H-pyrazol-5-yl)imidazo[1,5-b]pyridazin-2-yl)-3-methylmorpholine], the results for the IC50 in test [1] and in test [2] were 287 nM and 124 nM, respectively.
